Entries after “also recorded” stand apart in the source; their conditions may differ. Like-named read-outs stand apart in the source and are kept apart here.
Experiments:
P. falciparum 3D7 strain = experiment: Antiplasmodial assay (SYBR Green), sensitive strain; format: cell-based, Plasmodium falciparum; conditions: for EC50: Plasmodium falciparum; for SI^a: Selectivity index calculated by COS7 CC50/3D7 EC50; for antiplasmodial activity (concentration range in words): asexual blood stages, 3D7 and W2 strains
Description: (§1) The 3D7 and W2 strains were cultured in RPMI 1640 medium supplemented with 0.05 mg/mL gentamycin, 38.4 mM HEPES, 0.2% sodium bicarbonate, and 10% O^+ human serum, as previously described in standardized protocol. Then, erythrocytes were added to the culture to obtain a 5% of hematocrit, and incubated at 37°C under 5% CO2 atmosphere, with daily exchange of medium. The parasitemia was monitored daily in smears, stained with Giemsa. Synchronic cultures in ring stage were obtained by two consecutive treatments, at 48h intervals with a 5% solution of D-sorbitol.
(§2) Parasites synchronized at the ring stage, with 0.5% parasitemia and 2% hematocrit, were distributed in the wells of a 96-well plate. The compounds were tested in triplicates using 12-point dilution series (0.019 μM– 40 μM) over 72h. Chloroquine and pyrimethamine were used as positive controls. The in vitro susceptibility of parasite to tested drugs was measured by SYBR Green according to Hartwig and colleagues. Briefly, 100 μL of lysis buffer (20 mM Tris, 5 mM EDTA, 0,008% wt/vol saponin, 0,08% vol/vol Triton X-100 and 0.4 μL/mL of SYBR Green) were added in each well of a new black 96-well plate and 100 μL of parasite culture incubated with drugs were transferred. After homogenization, the plates were incubated for 1h in the dark. Fluorescence was measured at 490 nm excitation and 540 nm emission (CLARIOstar, Labtech BMG).
(§3) The EC50 and CC50 values were calculated by plotting the Log doses vs. inhibition (expressed as a percentage relative to the control) in GraphPad Prism v.6 (GraphPad Software, La Jolla California USA, www.graphpad.com).

P. falciparum W2 strain = experiment: Antiplasmodial assay (SYBR Green), multi-drug-resistant strain; format: cell-based, Plasmodium falciparum; conditions: for EC50: Plasmodium falciparum, read-out: EC50 (PfW2); for SI^b: Selectivity index calculated by COS7 CC50/W2 EC50
Description: as §1, §2, §3

[1] = Cytotoxicity assay (MTT reduction); format: cell-based, monkey; conditions: monkey, COS-7 cells (fibroblast-like monkey kidney cell line); 72 hours, mean ± SD of three independent assays
Description: (§4) Cytotoxicity assays used fibroblast-like cell lines derived from monkey kidney tissue (COS7 cells), grown in DMEM medium supplemented with 10% fetal bovine serum and 0.05 mg/mL gentamicin in atmosphere containing 5% CO2 at 37°C. […] After an incubation period (72 hours), cell viability analysis was performed via the MMT reduction method (3- [4,5- dimethyl-thiazol-2-yl] -2,5-diphenyltetrazolium […]).
as §3

COS-7 cells = experiment: Cytotoxicity assay (MTT reduction); format: cell-based, monkey; conditions: in words
Description: as §4, §3

[2] = test system: P. falciparum 3D7 strain (chloroquine sensitive); conditions: S3 File, continuous QSAR dataset; ref ChEMBL CHEMBL2366922 [25]; cited from earlier work
[3] = test system: mouse embryonic fibroblasts (NIH/3T3 cell line); conditions: S4 File, continuous QSAR dataset; ref ChEMBL CHEMBL614822 [25]; cited from earlier work
[4] = 3D7, asexual blood stage, 72h, mean ± SD of three independent assays, read-out: EC50 (Pf3D7)
[5] = W2, asexual blood stage, 72h, mean ± SD of three independent assays
[6] = 3D7, asexual blood stages of sensitive and multi-drug-resistant strains, read-out: EC50

Structure (SMILES)	EC50 (P. falciparum 3D7 strain; [4]) [nM]	EC50 (P. falciparum W2 strain; [5]) [nM]	SI^b (P. falciparum W2 strain)	CC50 at 72 h [1] [nM]	pEC50 [2]	other results
CC(=O)N(C1=C(N2CCOCC2)C(=O)c2ccccc2C1=O)c1ccc(C(=O)O)cc1 [LabMol-151, 4-{N-[3-(morpholin-4-yl)-1,4-dioxo-1,4-dihydronaphthalen-2-yl]acetamido}benzoic acid]	1910 ± 292	1620 ± 321	87.1	141000 ± 11200		SI^a (P. falciparum 3D7 strain): 73.7; antiplasmodial activity (concentration range in words) (P. falciparum 3D7 strain): submicromolar and low nanomolar range; also recorded: activity at submicromolar concentrations; cytotoxicity in mammalian cells (COS-7 cells): low cytotoxicity
CC1CCC2C(C)C(O)OC3OC4(C)CCC1C32OO4 (centres unmarked)					10.00	
Cn1cncc1C(OCc1ccc(C#N)cc1C#Cc1ccccc1)c1ccc(C#N)cc1 (centres unmarked)						pCC50 [3]: 10.00
Oc1ccccc1C1N=C(c2ccccc2)N=C(c2ccccc2)N1 (centres unmarked) [LabMol-149, 2-(4,6-diphenyl-1,2-dihydro-1,3,5-triazin-2-yl)phenol]	1450 ± 524	509 ± 177	>196	> 100000		EC50 (P. falciparum 3D7 strain; [6]): < 500 nM; antiplasmodial activity (concentration range in words) (P. falciparum 3D7 strain): submicromolar and low nanomolar range; also recorded: activity at submicromolar concentrations; cytotoxicity in mammalian cells (COS-7 cells): low cytotoxicity
Fc1cccc(Nc2nc(NCC3CCCO3)c3ccccc3n2)c1 (centres unmarked) [LabMol-152, N2-(3-fluorophenyl)-N4-[(oxolan-2-yl)methyl]quinazoline-2,4-diamine]	49 ± 29	78 ± 14	214.1	16700 ± 10300		EC50 (P. falciparum 3D7 strain; [6]): < 500 nM; SI^a (P. falciparum 3D7 strain): 340.8; antiplasmodial activity (concentration range in words) (P. falciparum 3D7 strain): submicromolar and low nanomolar range; cytotoxicity in mammalian cells (COS-7 cells): low cytotoxicity
CC1(C)NC(C2=NOC(C)(C)N2)=NO1 [LabMol-148]	> 40000	> 40000		> 200000		
CCN(CC)CCCC(C)Nc1ccnc2cc(Cl)ccc12 (centres unmarked) [Chloroquine, chloroquine, reference compound]						EC50 (P. falciparum 3D7 strain; 3D7, 72 h, read-out: EC50 (Pf3D7)): 11 ± 1 nM; EC50 (P. falciparum W2 strain; W2, 72 h): 173 ± 20 nM
CCc1nc(N)nc(N)c1-c1ccc(Cl)cc1 [Pyrimethamine, pyrimethamine, reference compound]	37 ± 7	18200 ± 4540	5.5	> 100000		SI^a (P. falciparum 3D7 strain): 2,702
Nc1cc(N)nc(N2CCOCC2)n1 [LabMol-150]	> 40000	> 40000		> 200000		
N=C(N)c1ccc(-c2ccc(-c3ccc(F)cc3)o2)cc1					11.02	
Cn1cncc1C(O)C1=Cc2cccnc2C(N2CCN(C(=O)NC(C)(C)C)CC2)c2ccc(Cl)cc21 (centres unmarked)						pCC50 [3]: 9.30
Cc1ccc(-c2ccc(-c3ccc(C(=N)N)cc3)o2)cc1					10.24	
COc1ccc(-c2ccc(-c3ccc(C(=N)N)cc3)o2)cc1					9.86	

From article PMC7048302, “Deep Learning-driven research for drug discovery: Tackling Malaria” (PLoS Computational Biology, 2020)
